Experimental findings from paper PMC6033896, “Discovery of Mcl-1 inhibitors from integrated high throughput and virtual screening” (Scientific Reports, 2018) are described below.

Several values for one entry are separate records, joined by “and”; a condition that tells them apart may be missing. Equal values may be shown once. Entries after “also recorded” stand apart in the source; their conditions may differ.

One may read the IC50 as the point on the concentration scale where inhibition reaches its midpoint. One may read the Ki as a measure of affinity in units of concentration, obtained from inhibition or displacement.

The target of assay [1] is T1, endogenous Mcl-1 (Homo sapiens, UniProt Q07820).
T1 construct: endogenous in cells; host or cells: 2LMP (subclone of MDA-MB-231), whole cell lysate
Briefly: Biotin-streptavidin pulldown with BL-Noxa, 2LMP whole cell lysate. In kind it is binding. The protocol:
2LMP cells, a subclone of MDA-MB-231, were harvested (~15 × 10^6) and lysed via sonication with CHAPS buffer (10 mM HEPES pH 7.4, 2.5 mM EDTA, 150 mM NaCl, 1% (w/v) CHAPS, pH 7.4). […] Protein-peptide complexes were pulled down with agarose beads for 2 hrs. Beads were washed with CHAPS buffer and Mcl-1 protein was eluted by boiling in SDS-PAGE loading dye. Samples were analysed by western blotting with the Mcl-1 antibody (Thermo Scientific #MS-681-P1).

Assay [2] has as its system Eµ-myc lymphoma cells overexpressing Mcl-1. Briefly: Eµ-myc lymphoma cell viability, flow cytometry. The note with it: increasing concentrations, 15 h. Type of assay: cell-based, mice. On the procedure: (§1) MEF cells, including wild-type, Bax/Bak double knockout, Bax−/− single knockout, and Bak−/− single knockout were tested and characterized (Supplementary Fig. S3). The cells were cultured in DMEM (Life Technologies), supplemented with 10% fetal bovine serum (FBS) (Thermo Scientific HyClone) and 1% Penicillin/streptomycin solution (Life Technologies). The retrovirally transduced lymphoma cells isolated from Eμ-myc transgenic mice were provided by Ricky W. Johnstone at the University of Melbourne, Melbourne, Australia and cultured as previously described[37],[65].
(§2) The Mcl-1, Bcl-2, and Bcl-xL retroviral transduced lymphoma Eμ-myc cells were seeded in 12-well plates at 0.5 × 10^6 cells/well. […] The cells were harvested and stained with violet LIVE/DEAD Fixable Dead Cell Stain Kit (Invitrogen) according to manufacturer’s protocol. The percentage of fluorescent positive cells was determined by flow cytometry and calculated using WinList 3.0.
(In general: In flow cytometry, cells or beads pass a laser one at a time.)

The subject of assay [3] is Eµ-myc lymphoma cells overexpressing Bcl-2. Briefly: Eµ-myc lymphoma cell viability, flow cytometry. In kind it is cell-based, mice. The note with it: increasing concentrations. The protocol:
as §1, §2

The target in assay [4] is T2, Bcl-2 (Homo sapiens, UniProt P10415, DEL35-91/INS34DVEENRTEAPEGTESE).
T2 construct: His tag (pHis-TEV vector) (N, cleaved yes); made in house; host or cells: E. coli BL21 (DE3)
Description: FP-based competitive binding assay with FAM-Bid. The note with it: FP.

Assay [5] has as its target T3, Bcl-xL (Homo sapiens, UniProt Q07817, DEL45-85).
T3 construct: His tag (pHis-TEV vector) (N, cleaved yes); made in house; host or cells: E. coli BL21 (DE3)
Briefly: FP-based competitive binding assay with FAM-Bid. The note with it: for IC50 / Ki: FP.

Assay [6] deals with T4, Mcl-1 protein (Homo sapiens, UniProt Q07820).
T4 construct: human Mcl-1 (residues 171–323); His tag (pHis-TEV vector) (N, cleaved yes); made in house; host or cells: E. coli BL21 (DE3)
Briefly: SPR-based solution competitive binding assay, immobilized biotin-labelled Bim BH3 peptide. The note with it: Mcl-1 20 nM; competition with immobilized Bim BH3 peptide. The protocol: The solution competitive SPR-based assay was performed on Biacore 2000 in a similar way as was already reported. Briefly, N terminal biotin-labelled Bim BH3 peptide (141–166 amino acids) was immobilized on streptavidin (SA) chip giving a density of 800 RU (Response Units). The pre-incubated Mcl-1 protein (20 nM) with tested small-molecule inhibitors for at least 30 min was injected over the surfaces of the chip using assay buffer HBS-P (GE, #BR100368). Response units were measured at 15 s in the dissociation phase, and IC50 values were determined by nonlinear least-squares analysis using GraphPad Prism 6.0 software.

Assay [7] deals with Bax/Bak double knockout (DKO) MEFs. Description: MEF cell death, propidium iodide flow cytometry. Type of assay: cell-based, mouse. The protocol:
as §1
(§3) MEFs were seeded in 24-well plates at 0.5 × 10^5 cells/well, left to adhere for 5 hours and then treated for 15 hours with increasing concentrations of the compounds. The cells were harvested, washed with phosphate-buffered saline (PBS) and stained with 0.025 mg/ml propidium iodide (MP Biomedicals). The percentage of the propidium iodide positive population was determined by flow cytometry and calculated using WinList 3.0.

Assay [8] concerns wild-type MEFs. Briefly: MEF cell death, propidium iodide flow cytometry. In kind it is cell-based, mouse. On the procedure: as §1, §3
For assay [9], the system named is Bak−/− single knockout MEFs. Description: MEF cell death, propidium iodide flow cytometry. In kind it is cell-based, mouse. The note with it: increasing concentrations, 15 h. On the procedure: as §1, §3
Assay [10] has as its system Bax−/− single knockout MEFs. Briefly: MEF cell death, propidium iodide flow cytometry. In kind it is cell-based, mouse. As to conditions: increasing concentrations, 15 h. The protocol: as §1, §3
Assay [11] has as its system Bcl-2. Description: FP-based competitive binding assay with FAM-Bid. Also noted: species or system human. The note with it: ratio of Ki.
The mark [12] stands for this setting: 100 µM of hits (15: 10, 20, 30 µM), 15-hour treatment, propidium iodide.
Setting [13] is: increasing concentrations, 15 h.

T3 sequence (Q07817 with tags, fused parts or gaps DEL45-85 limits assumed): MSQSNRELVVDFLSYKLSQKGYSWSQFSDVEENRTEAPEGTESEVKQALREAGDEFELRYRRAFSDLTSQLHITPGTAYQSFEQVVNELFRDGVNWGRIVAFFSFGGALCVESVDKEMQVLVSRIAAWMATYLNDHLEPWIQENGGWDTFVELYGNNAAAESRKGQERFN
T2 sequence (P10415 with tags, fused parts or gaps INS34DVEEN/V35R/G36T/A37E/P40E/DEL42-87/P88T/V89E/P90S/P91E): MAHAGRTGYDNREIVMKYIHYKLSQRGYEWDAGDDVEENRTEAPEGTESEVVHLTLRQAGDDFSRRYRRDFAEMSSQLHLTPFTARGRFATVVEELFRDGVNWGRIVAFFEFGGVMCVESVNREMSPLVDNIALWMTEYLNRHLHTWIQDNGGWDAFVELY
T4 sequence (Q07820 171-323): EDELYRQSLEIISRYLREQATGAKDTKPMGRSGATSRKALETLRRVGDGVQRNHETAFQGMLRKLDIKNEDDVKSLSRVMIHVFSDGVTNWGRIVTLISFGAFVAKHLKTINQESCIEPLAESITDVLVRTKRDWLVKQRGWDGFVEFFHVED
T1 sequence (Q07820 whole entry): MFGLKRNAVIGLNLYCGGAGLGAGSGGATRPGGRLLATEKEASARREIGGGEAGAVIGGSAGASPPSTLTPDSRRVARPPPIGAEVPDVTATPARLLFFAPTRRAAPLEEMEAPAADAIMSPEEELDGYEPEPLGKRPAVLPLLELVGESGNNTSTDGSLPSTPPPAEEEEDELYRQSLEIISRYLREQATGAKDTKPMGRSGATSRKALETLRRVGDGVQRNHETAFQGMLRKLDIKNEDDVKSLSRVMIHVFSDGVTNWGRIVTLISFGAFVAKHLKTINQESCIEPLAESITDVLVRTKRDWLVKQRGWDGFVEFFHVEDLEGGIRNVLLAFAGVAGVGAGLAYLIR

Turning to `c1ccc(CCCCSc2nnc(-c3ccco3)c(-c3ccco3)n2)cc1` [Compound 44], the “disruption of BL-Noxa binding to endogenous Mcl-1” value in assay [1] is “dose-dependent blocking”. Further, the “killing of Eµ-myc cells overexpressing Mcl-1” value in [2] is given as “killing”. Moreover, in assay [3], the “effect on Eµ-myc cells overexpressing Bcl-2” value was “selectivity”. In assay [4], the IC50 was more than 100 µM and the Ki was more than 25 µM. Besides, in assay [5], the IC50 is more than 100 µM and the Ki is more than 20 µM.

Regarding `O=C(CSc1nnc(-c2ccco2)c(-c2ccco2)n1)Nc1ccccc1` [Compound 19], the IC50 in [6] was 13 µM and 13.4 µM; in assay [4] it was more than 100 µM; in assay [5], more than 100 µM. Moreover, the “cell death induction in Bax/Bak DKO MEFs, screening of hits” value in [7] (setting [12]) is on record as “without significant cell death induction”. In addition, the “cell death induction in wild-type MEFs, screening of hits” value in assay [8] (setting [12]) is given as “inducing cell death”. For the same compound, the Ki in assay [4] is more than 25 µM; in assay [5] it was more than 20 µM.

On to `O=C(CSc1nnc(-c2ccco2)c(-c2ccco2)n1)Nc1cccc(C(F)(F)F)c1` [Compound 39], for which the IC50 is 6.3 ± 0.6 µM in assay [6], more than 100 µM in assay [4] and more than 100 µM in assay [5]. The “disruption of BL-Noxa binding to endogenous Mcl-1” value in assay [1] is “dose-dependent blocking”. Also, the “cell death in Bak−/− MEFs” value in assay [9] is reported as “rescued the cells”. For the same compound, the “cell death in Bax/Bak DKO MEFs” value in assay [7] (setting [13]) is on record as “rescued the cells”. The “cell death in wild-type MEFs” value in assay [8] (setting [13]) is listed as “induces Bax/Bak-dependent cell death; also recorded: dose-dependent increase in cell death”. The “cell death in Bax−/− MEFs” value in [10] is “rescued the cells”. The “killing of Eµ-myc cells overexpressing Mcl-1” value in assay [2] is “selective killing; also recorded: selectively kills Mcl-1 dependent cell lines”. In addition, the “effect on Eµ-myc cells overexpressing Bcl-2” value in assay [3] was “selectivity; also recorded: minimal effect”. In addition, the Ki in [4] is more than 25 µM; in [5] it was more than 20 µM. The “fold lower binding affinity to Bcl-xL than to Mcl-1” value in assay [5] (ratio of Ki) is more than 17 fold. Besides, the “fold lower binding affinity to Bcl-2 than to Mcl-1” value in [11] was more than 20 fold.
